From ChEMBL document CHEMBL3526091, “Pharmacokinetics, metabolism, and excretion of the glycogen synthase kinase-3 inhibitor LY2090314 in rats, dogs, and humans: a case study in rapid clearance by extensive metabolism with low circulating metabolite exposure” (Drug Metab Dispos, 2013)

Columns and labels:
[1] = Volume of distribution at steady state in cancer patient at 60 mg for 60 mins treated 1/1 cycle/day; type: ADME, organism-based; set-up: dosed compound name LY2090314; conditions: human, in vivo, read-out: Vdss
[2] = Plasma protein binding in cancer patient; type: ADME, cell-free; set-up: dosed compound name LY2090314; conditions: human, read-out: PPB (converted)
[3] = Tmax in cancer patient at 10 mg for 60 mins treated 1/1 cycle/day; type: ADME, organism-based; set-up: dosed compound name LY2090314; conditions: human, in vivo
[4] = Tmax in cancer patient at 80 mg for 60 mins treated 1/8 cycle/day; type: ADME, organism-based; set-up: dosed compound name LY2090314; conditions: human, in vivo
Canis familiaris [5] = assay: Elimination half life in beagle dog assessed as total radioactivity at 5 mg/kg, iv administered for 30 mins; type: ADME, organism-based, Canis lupus familiaris; set-up: dose 5 mg/kg, dosed compound name [14C]LY2090314, route intravenous; conditions: in vivo, 0.5 h
[6] = Drug recovery in bile duct-cannulated Sprague-Dawley rat assessed as radioactivity in bile during 0 to 12 hrs at 5 mg/kg, iv administered for 30 mins relative to dosed radioactivity; type: ADME, organism-based; set-up: dose 5 mg/kg, dosed compound name [14C]LY2090314, route intravenous; conditions: in vivo
[7] = Volume of distribution at steady state in beagle dog at 5 mg/kg, iv administered for 30 mins; type: ADME, organism-based, Canis lupus familiaris; set-up: dose 5 mg/kg, dosed compound name [14C]LY2090314, route intravenous; conditions: in vivo, read-out: Vdss
[8] = Drug recovery in bile duct-cannulated Sprague-Dawley rat bile at 5 mg/kg, iv administered for 30 mins during 0 to 168 hrs time interval by radio analysis; type: ADME, organism-based; set-up: dose 5 mg/kg, dosed compound name [14C]LY2090314, route intravenous; conditions: in vivo
[9] = AUC (0 to infinity) in cancer patient at 80 mg for 60 mins treated 1/8 cycle/day; type: ADME, organism-based; set-up: dose 80 mg, time infinity, dosed compound name LY2090314; conditions: human, plasma
[10] = Tmax in cancer patient at 20 mg for 60 mins treated 2/1 cycle/day; type: ADME, organism-based; set-up: dosed compound name LY2090314; conditions: human, in vivo
[11] = Clearance in cancer patient at 60 mg for 60 mins treated 1/8 cycle/day; type: ADME, organism-based; set-up: dosed compound name LY2090314; conditions: human, in vivo
[12] = Drug recovery in bile duct-cannulated Sprague-Dawley rat assessed as radioactivity in feces during 0 to 24 hrs at 5 mg/kg, iv administered for 30 mins relative to dosed radioactivity; type: ADME, organism-based; set-up: dose 5 mg/kg, dosed compound name [14C]LY2090314, route intravenous; conditions: in vivo
[13] = AUC (0 to infinity) in cancer patient at 40 mg for 60 mins treated 1/1 cycle/day; type: ADME, organism-based; set-up: dose 40 mg, time infinity, dosed compound name LY2090314; conditions: human, plasma
[14] = Drug recovery in bile duct-intact beagle dog assessed as radioactivity in feces during 0 to 48 hrs at 5 mg/kg, iv administered for 30 mins; type: ADME, organism-based, Canis lupus familiaris; set-up: dose 5 mg/kg, dosed compound name [14C]LY2090314, route intravenous; conditions: in vivo
[15] = Clearance in cancer patient at 80 mg for 60 mins treated 1/1 cycle/day; type: ADME, organism-based; set-up: dosed compound name LY2090314; conditions: human, in vivo
Canis familiaris [16] = assay: Total drug recovery in beagle dog at 5 mg/kg, iv administered for 30 mins during 48 hrs time interval by radio analysis; type: ADME, organism-based, Canis lupus familiaris; set-up: dose 5 mg/kg, dosed compound name [14C]LY2090314, route intravenous; conditions: in vivo
[17] = Half life in cancer patient at 20 mg for 60 mins treated 2/1 cycle/day; type: ADME, organism-based; set-up: dosed compound name LY2090314; conditions: human, in vivo
Rattus norvegicus = assay: Cmax in Sprague-Dawley rat assessed as total radioactivity at 5 mg/kg, iv administered for 30 mins; type: ADME, organism-based; set-up: dose 5 mg/kg, dosed compound name [14C]LY2090314, route intravenous; conditions: in vivo, 0.5 h
Plasma = assay: Drug recovery in beagle dog plasma assessed as radiochemical peak area at 5 mg/kg, iv administered for 30 mins after 2 hrs by radio analysis; type: ADME, organism-based, Canis lupus familiaris; set-up: dose 5 mg/kg, dosed compound name [14C]LY2090314, route intravenous; conditions: in vivo
[18] = Drug recovery in beagle dog urine at 5 mg/kg, iv administered for 30 mins during 0 to 24 hrs time interval by radio analysis; type: ADME, organism-based, Canis lupus familiaris; set-up: dose 5 mg/kg, dosed compound name [14C]LY2090314, route intravenous; conditions: in vivo
[19] = Drug recovery in Sprague-Dawley rat urine at 5 mg/kg, iv administered for 30 mins during 0 to 24 hrs time interval by radio analysis; type: ADME, organism-based; set-up: dose 5 mg/kg, dosed compound name [14C]LY2090314, route intravenous; conditions: in vivo
[20] = Tmax in cancer patient at 60 mg for 60 mins treated 1/1 cycle/day; type: ADME, organism-based; set-up: dosed compound name LY2090314; conditions: human, in vivo
[21] = Drug recovery in bile duct-cannulated Sprague-Dawley rat urine at 5 mg/kg, iv administered for 30 mins during 0 to 168 hrs time interval by radio analysis; type: ADME, organism-based; set-up: dose 5 mg/kg, dosed compound name [14C]LY2090314, route intravenous; conditions: in vivo
[22] = Drug recovery in Sprague-Dawley rat urine at 5 mg/kg, iv administered for 30 mins during 0 to 168 hrs time interval by radio analysis; type: ADME, organism-based; set-up: dose 5 mg/kg, dosed compound name [14C]LY2090314, route intravenous; conditions: in vivo
[23] = Drug recovery in Sprague-Dawley rat feces at 5 mg/kg, iv administered for 30 mins during 0 to 24 hrs time interval by radio analysis; type: ADME, organism-based; set-up: dose 5 mg/kg, dosed compound name [14C]LY2090314, route intravenous; conditions: in vivo
[24] = Cmax in cancer patient at 40 mg for 60 mins treated 1/1 cycle/day; type: ADME, organism-based; set-up: dose 40 mg, dosed compound name LY2090314; conditions: human, in vivo
[25] = Tmax in cancer patient at 40 mg for 60 mins treated 1/8 cycle/day; type: ADME, organism-based; set-up: dosed compound name LY2090314; conditions: human, in vivo

Vd [1]: 76.8 L | fraction unbound [2]: 0.03 | Tmax [3]: 57 min | Tmax [4]: 58.8 min | beta t1/2 (Canis familiaris [5]): 73.6 h | Radiolabel recovery [6]: 85.2% | Vd [7]: 0.915 L/kg | Radiolabel recovery [8]: 85.8% | AUC(0-inf) [9]: 1830 ng·h/mL | Tmax [10]: 45 min | clearance [11]: 633 mL/min | Radiolabel recovery [12]: 6.75% | AUC(0-inf) [13]: 976 ng·h/mL | Radiolabel recovery [14]: 4.1% | clearance [15]: 747 mL/min | Radiolabel recovery (Canis familiaris [16]): 88% | half-life [17]: 115 min | Cmax (Rattus norvegicus): 2080 ng/mL | Radiolabel recovery (Plasma): 36.09% | Radiolabel recovery [18]: 19.8% | Radiolabel recovery [19]: 0.73% | Tmax [20]: 33 min | Radiolabel recovery [21]: 1.94% | Radiolabel recovery [22]: 0.8% | Radiolabel recovery [23]: 91.8% | Cmax [24]: 603 ng/mL | Tmax [25]: 60 min
SMILES: O=C1NC(=O)C(c2cnc3ccccn23)=C1c1cn2c3c(cc(F)cc13)CN(C(=O)N1CCCCC1)CC2 [LY-2090314]
